This assay concerns the target Complex V (ATP synthase complex) (Bos taurus, UniProt P00829+P05631+P19483). Description: immunocapture-based OXPHOS activity assay. The format is biochemical.

The text below walks through data of article PMC7938330 (Toxicology in vitro : an international journal published in …, 2020).

Turning to `C1CCC(C(CC2CCCCN2)C2CCCCC2)CC1` (stereo not shown) [perhexiline], the IC50 (commonly the concentration that gives 50% inhibition) was 0.01 µM.
